Values of other authors in paper PMC12150326 (The Journal of Organic Chemistry, 2025).
Values joined by “and” are separate entries in the source; they are usually repeats but may differ in a detail not shown here. Equal values may be shown once. Read-outs that look alike come from different tables or passages of the source.

Columns and labels:
Design in all cases: method as in NCI-60 database
[1] = test system: DLD-1; settings: DLD-1 ref NCI-60 database, cited from earlier work
[2] = test system: OVCAR-4; settings: OVCAR-4 ref NCI-60 database, cited from earlier work
[3] = test system: LOX IMVI; settings: LOX IMVI ref NCI-60 database, cited from earlier work
[4] = test system: HS 578T; settings: HS 578T ref NCI-60 database; cited from earlier work
[5] = test system: MCF7; settings: MCF7 ref NCI-60 database, cited from earlier work
[6] = test system: NCI-H460; settings: NCI-H460 ref NCI-60 database, cited from earlier work
[7] = test system: XF 498; settings: XF 498 ref NCI-60 database, cited from earlier work
[8] = test system: SF-539; settings: SF-539 ref NCI-60 database, cited from earlier work
[9] = test system: TK-10; settings: TK-10 ref NCI-60 database, cited from earlier work
[10] = test system: HCC-2998; settings: HCC-2998 ref NCI-60 database, cited from earlier work
[11] = test system: KM20L2; settings: KM20L2 ref NCI-60 database, cited from earlier work
[12] = test system: UACC-62; settings: UACC-62 ref NCI-60 database, cited from earlier work
[13] = test system: HCT-116; settings: HCT-116 ref NCI-60 database, cited from earlier work
[14] = test system: LXFL 529; settings: LXFL 529 ref NCI-60 database, cited from earlier work
[15] = test system: NCI/ADR-RES; settings: NCI/ADR-RES ref NCI-60 database; listed as 757/9; cited from earlier work
[16] = test system: M19-MEL; settings: M19-MEL ref NCI-60 database, cited from earlier work
[17] = test system: SN12C; settings: SN12C ref NCI-60 database, cited from earlier work
[18] = test system: RXF 393; settings: RXF 393 ref NCI-60 database, cited from earlier work
[19] = test system: T-47D; settings: T-47D ref NCI-60 database, cited from earlier work
[20] = test system: IGROV1; settings: IGROV1 ref NCI-60 database, cited from earlier work

## COc1cc2c(c(OC)c1OC)-c1ccc(OC)c(=O)cc1[C@@H](NC(C)=O)CC2 [Colchicine, (−)-Colchicine]
[1]
  Log10LC50: > -4.00 Molar
  Log10TGI: > -4.00 Molar
[1]; listed as 757/1
  Log10GI50: -7.35 Molar
[2]
  GI50: 93300 nM
  Log10GI50: -4.03 Molar
  Log10LC50: > -4.00 Molar
  Log10TGI: > -4.00 Molar
[2]; listed as 757/1
  Log10GI50: -4.45 Molar
[3]
  GI50: 19 nM
  Log10GI50: -7.71 Molar
[3]; listed as 757/1
  Log10GI50: -7.11 Molar
[4]
  Log10LC50: > -4.00 Molar
[5]
  GI50: 11 nM
  Log10GI50: -7.94 Molar
  Log10LC50: > -4.00 Molar
[5]; listed as 757/9
  Log10GI50: < -8.00 Molar
  Log10TGI: -7.92 Molar
[5]; listed as 757/21
  Log10GI50: -7.89 Molar
  Log10TGI: > -4.00 Molar
[6]
  GI50: 20 nM
  Log10GI50: -7.65 Molar
  Log10LC50: > -4.00 Molar
[6]; listed as 757/9
  Log10TGI: -7.12 Molar
[6]; listed as 757/21
  Log10GI50: -7.62 Molar and -7.50 Molar and -7.65 Molar
[7]
  Log10LC50: > -4.00 Molar
[7]; listed as 757/1
  Log10TGI: -4.41 Molar
[8]
  GI50: 30 nM
  Log10GI50: -7.54 Molar
[8]; listed as 757/1
  Log10GI50: -7.48 Molar
[8]; listed as 757/9
  Log10TGI: -6.82 Molar
[8]; listed as 757/21
  Log10LC50: > -4.00 Molar and -4.05 Molar
[9]
  GI50: > 100000 nM
  Log10GI50: > -4 Molar
  Log10LC50: > -4.00 Molar
  Log10TGI: > -4.00 Molar
[9]; listed as 757/1
  Log10GI50: > -4.00 Molar
[9]; listed as 757/9
  Log10GI50: -7.50 Molar
[9]; listed as 757/21
  Log10GI50: -4.66 Molar
[10]
  GI50: 30 nM
  Log10GI50: -7.51 Molar
  Log10LC50: > -4.00 Molar
[10]; listed as 757/1
  Log10GI50: -7.48 Molar
[10]; listed as 757/9
  Log10GI50: -7.78 Molar
  Log10TGI: -7.59 Molar and -7.33 Molar
[11]; listed as 757/1
  Log10GI50: < -8.00 Molar and -7.72 Molar
  Log10LC50: -7.10 Molar
[11]; listed as 757/21
  Log10GI50: -7.77 Molar
  Log10LC50: -7.19 Molar
  Log10TGI: -7.48 Molar
[12]
  GI50: 21 nM
  Log10GI50: -7.67 Molar
[12]; listed as 757/1
  Log10GI50: -7.19 Molar
[12]; listed as 757/9
  Log10GI50: -6.40 Molar
  Log10LC50: -6.18 Molar
  Log10TGI: -7.72 Molar
[12]; listed as 757/21
  Log10LC50: > -4.00 Molar and -4.22 Molar
[13]
  GI50: 30 nM
  Log10GI50: -7.49 Molar
  Log10LC50: > -4.00 Molar
[13]; listed as 757/1
  Log10GI50: -7.41 Molar
  Log10TGI: > -4.00 Molar and -4.23 Molar
[13]; listed as 757/9
  Log10GI50: -7.79 Molar
[14]
  Log10LC50: > -4.00 Molar
  Log10TGI: > -4.00 Molar
[14]; listed as 757/21
  Log10GI50: < -8.00 Molar and -7.80 Molar
[15]
  Log10GI50: -6.59 Molar and -6.31 Molar
[16]
  Log10LC50: > -4.00 Molar
  Log10TGI: > -4.00 Molar
[16]; listed as 757/21
  Log10GI50: < -8.00 Molar
[17]
  GI50: 54 nM
  Log10GI50: -7.27 Molar
  Log10LC50: > -4.00 Molar
[17]; listed as 757/9
  Log10GI50: < -8.00 Molar
[17]; listed as 757/21
  Log10GI50: -7.33 Molar and -7.28 Molar and -7.27 Molar
  Log10TGI: > -4.00 Molar and -4.21 Molar
[18]
  GI50: < 10 nM
  Log10GI50: < -8 Molar
  Log10LC50: > -4.00 Molar
[18]; listed as 757/1
  Log10GI50: < -8.00 Molar
  Log10TGI: > -4.00 Molar
[18]; listed as 757/9
  Log10GI50: -7.93 Molar
[18]; listed as 757/21
  Log10GI50: -7.83 Molar and -7.85 Molar
[19]
  GI50: 75700 nM
  Log10GI50: -4.12 Molar
  Log10LC50: > -4.00 Molar
  Log10TGI: > -4.00 Molar
[19]; listed as 757/9
  Log10GI50: > -4.00 Molar
[19]; listed as 757/21
  Log10GI50: -4.21 Molar
[20]
  GI50: 52 nM
  Log10GI50: -7.28 Molar
  Log10LC50: > -4.00 Molar
[20]; listed as 757/9
  Log10GI50: < -8.00 Molar
  Log10TGI: -7.80 Molar
[20]; listed as 757/21
  Log10TGI: > -4.00 Molar
